Source: ChEMBL document CHEMBL1201862, “PubChem BioAssay data set” (2004)
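Method: 48-hour compound exposure of cells in 96-well plates, five concentrations, linear interpolation of endpoints. Abbreviation: GI50, concentration required for 50% inhibition of growth.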 Active and inactive are the calls of the source. No stated cut-off is given here; in the data, active = GI50 up to about 1.1 µM and inactive = higher.

What was measured:
Assay in all cases: NCI tumour cell line growth inhibition, 48 h
TK-10 = test system: TK-10
786-0 = test system: 786-0
OVCAR-5 = test system: OVCAR-5
IGROV-1 = test system: IGROV-1
UO-31 = test system: UO-31
NCI-H460 = test system: NCI-H460
ACHN = test system: ACHN
NCI-H23 = test system: NCI-H23
DLD-1 = test system: DLD-1
SR = test system: SR
LXFL 529 = test system: LXFL 529
A549 = test system: A549
KM-20L2 = test system: KM-20L2
NCI-H522 = test system: NCI-H522
SNB-75 = test system: SNB-75
SF-268 = test system: SF-268
M14 = test system: M14
SW-620 = test system: SW-620
SK-MEL-5 = test system: SK-MEL-5
DMS-114 = test system: DMS-114
LOX IMVI = test system: LOX IMVI
A498 = test system: A498
SNB-19 = test system: SNB-19
SK-OV-3 = test system: SK-OV-3
RXF 393 = test system: RXF 393
RPMI-8226 = test system: RPMI-8226
OVCAR-8 = test system: OVCAR-8
KM12 = test system: KM12
HOP-62 = test system: HOP-62
U-251 = test system: U-251
UACC-62 = test system: UACC-62
HT-29 = test system: HT-29
SF-539 = test system: SF-539
K562 = test system: K562
SN12C = test system: SN12C
M19-MEL = test system: M19-MEL
XF498 = test system: XF498
MOLT-4 = test system: MOLT-4
DMS-273 = test system: DMS-273
SF-295 = test system: SF-295
EKVX = test system: EKVX
HCC 2998 = test system: HCC 2998
HL-60 = test system: HL-60
COLO 205 = test system: COLO 205
SK-MEL-2 = test system: SK-MEL-2
UACC-257 = test system: UACC-257
SK-MEL-28 = test system: SK-MEL-28
HOP-92 = test system: HOP-92
HCT-15 = test system: HCT-15
CAKI-1 = test system: CAKI-1
NCI-H226 = test system: NCI-H226
OVCAR-3 = test system: OVCAR-3
OVCAR-4 = test system: OVCAR-4
HCT-116 = test system: HCT-116
Malme-3M = test system: Malme-3M
HOP-18 = test system: HOP-18
SNB-78 = test system: SNB-78

For `CN1CCN(CCSC2Cc3cc(Cl)ccc3Sc3ccccc32)CC1` (stereo unspecified), the GI50 (TK-10) was 5.13 µM (inactive), the GI50 (786-0) was 4.55 µM (inactive) and the GI50 (OVCAR-5) was 5.37 µM (inactive). The GI50 (IGROV-1) was 10.3 µM (inactive), the GI50 (UO-31) was 8.11 µM (inactive) and the GI50 (NCI-H460) was 4.95 µM (inactive). For the same compound, the GI50 (ACHN) was 8.36 µM (inactive), the GI50 (NCI-H23) was 7.89 µM (inactive) and the GI50 (DLD-1) was 3.7 µM (inactive). For the same compound, the GI50 (SR) was 5.07 µM (inactive), the GI50 (LXFL 529) was 2.89 µM (inactive) and the GI50 (A549) was 6.05 µM (inactive). The GI50 (KM-20L2) was 1.74 µM (inactive), the GI50 (NCI-H522) was 5.93 µM (inactive) and the GI50 (SNB-75) was 5.82 µM (inactive). The GI50 (SF-268) was 8.47 µM (inactive), the GI50 (M14) was 1.91 µM (inactive) and the GI50 (SW-620) was 2.81 µM (inactive). For the same compound, the GI50 (SK-MEL-5) was 3.26 µM (inactive), the GI50 (DMS-114) was 4.9 µM (inactive) and the GI50 (LOX IMVI) was 2.28 µM (inactive). The GI50 (A498) was 6.41 µM (inactive), the GI50 (SNB-19) was 13.9 µM (inactive) and the GI50 (SK-OV-3) was 16.7 µM (inactive). For the same compound, the GI50 (RXF 393) was 4.19 µM (inactive), the GI50 (RPMI-8226) was 2.26 µM (inactive) and the GI50 (OVCAR-8) was 7.91 µM (inactive). The GI50 (KM12) was 3.46 µM (inactive), the GI50 (HOP-62) was 12.7 µM (inactive) and the GI50 (U-251) was 5.4 µM (inactive). For the same compound, the GI50 (UACC-62) was 1.91 µM (inactive), the GI50 (HT-29) was 1.63 µM (inactive) and the GI50 (SF-539) was 3.15 µM (inactive). For the same compound, the GI50 (K562) was 1.71 µM (inactive), the GI50 (SN12C) was 9.12 µM (inactive) and the GI50 (M19-MEL) was 2.13 µM (inactive). For the same compound, the GI50 (XF498) was 3.03 µM (inactive), the GI50 (MOLT-4) was 2.44 µM (inactive) and the GI50 (DMS-273) was 2.1 µM (inactive). For the same compound, the GI50 (SF-295) was 4.18 µM (inactive), the GI50 (EKVX) was 15.1 µM (inactive) and the GI50 (HCC 2998) was 4.18 µM (inactive). For the same compound, the GI50 (HL-60) was 1.73 µM (inactive), the GI50 (COLO 205) was 1.74 µM (inactive) and the GI50 (SK-MEL-2) was 1.86 µM (inactive). For the same compound, the GI50 (UACC-257) was 1.9 µM (inactive), the GI50 (SK-MEL-28) was 1.86 µM (inactive) and the GI50 (HOP-92) was 4.5 µM (inactive). The GI50 (HCT-15) was 4.59 µM, the GI50 (CAKI-1) was 6.67 µM (inactive) and the GI50 (NCI-H226) was 16.9 µM (inactive). For the same compound, the GI50 (OVCAR-3) was 8.2 µM (inactive), the GI50 (OVCAR-4) was 6.81 µM (inactive) and the GI50 (HCT-116) was 5.69 µM (inactive). For the same compound, the GI50 (Malme-3M) was 2.45 µM (inactive) and the GI50 (HOP-18) was 9.1 µM (inactive).
`COC(=O)C(C(=O)C(=O)Nc1nc2ccc(OC)cc2s1)c1cnc2ccccc2n1` (stereo unspecified) was tested, and the GI50 (TK-10) was > 100 µM (inactive), the GI50 (786-0) was > 100 µM (inactive) and the GI50 (OVCAR-5) was > 100 µM (inactive). For the same compound, the GI50 (IGROV-1) was > 100 µM (inactive), the GI50 (UO-31) was > 100 µM (inactive) and the GI50 (NCI-H460) was > 100 µM (inactive). The GI50 (ACHN) was > 100 µM (inactive), the GI50 (NCI-H23) was > 100 µM (inactive) and the GI50 (DLD-1) was > 100 µM (inactive). The GI50 (LXFL 529) was > 100 µM (inactive), the GI50 (A549) was > 100 µM (inactive) and the GI50 (KM-20L2) was > 100 µM (inactive). For the same compound, the GI50 (NCI-H522) was > 100 µM (inactive), the GI50 (SNB-75) was > 100 µM (inactive) and the GI50 (SF-268) was > 100 µM (inactive). The GI50 (M14) was > 100 µM (inactive), the GI50 (SW-620) was > 100 µM (inactive) and the GI50 (SK-MEL-5) was > 100 µM (inactive). For the same compound, the GI50 (LOX IMVI) was > 100 µM (inactive), the GI50 (A498) was > 100 µM (inactive) and the GI50 (SNB-19) was > 100 µM (inactive). For the same compound, the GI50 (SK-OV-3) was > 100 µM (inactive), the GI50 (RXF 393) was > 100 µM (inactive) and the GI50 (RPMI-8226) was > 100 µM (inactive). For the same compound, the GI50 (KM12) was > 100 µM (inactive), the GI50 (HOP-62) was > 100 µM (inactive) and the GI50 (U-251) was > 100 µM (inactive). For the same compound, the GI50 (UACC-62) was > 100 µM (inactive), the GI50 (HT-29) was > 100 µM (inactive) and the GI50 (SF-539) was > 100 µM (inactive). The GI50 (K562) was > 100 µM (inactive), the GI50 (SN12C) was > 100 µM (inactive) and the GI50 (M19-MEL) was > 100 µM (inactive). The GI50 (XF498) was > 100 µM (inactive), the GI50 (MOLT-4) was > 100 µM (inactive) and the GI50 (SF-295) was > 100 µM (inactive). For the same compound, the GI50 (EKVX) was > 100 µM (inactive), the GI50 (HCC 2998) was > 100 µM (inactive) and the GI50 (COLO 205) was > 100 µM (inactive). For the same compound, the GI50 (UACC-257) was > 100 µM (inactive), the GI50 (SK-MEL-28) was > 100 µM (inactive) and the GI50 (HOP-92) was > 100 µM (inactive). For the same compound, the GI50 (SNB-78) was > 100 µM (inactive), the GI50 (HCT-15) was > 100 µM and the GI50 (CAKI-1) was > 100 µM (inactive). The GI50 (NCI-H226) was > 100 µM (inactive), the GI50 (OVCAR-3) was > 100 µM (inactive) and the GI50 (OVCAR-4) was > 100 µM (inactive). For the same compound, the GI50 (HCT-116) was > 100 µM (inactive) and the GI50 (Malme-3M) was > 100 µM (inactive).
